From ChEMBL document CHEMBL1201862, “PubChem BioAssay data set” (2004)
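Cultured in 96-well plates, cells were exposed to test compound for 48 hours across five concentrations. Abbreviation: GI50, concentration required for 50% inhibition of growth.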 Active and inactive are the calls of the source. Rule as the data show it: active = GI50 up to about 1.1 µM and inactive = higher.

What was measured:
Test in all cases: DTP human tumour cell line panel, 48 h
786-0 = tested on: 786-0
A498 = tested on: A498
A549 = tested on: A549
ACHN = tested on: ACHN
COLO 205 = tested on: COLO 205
DLD-1 = tested on: DLD-1
EKVX = tested on: EKVX
HCT-15 = tested on: HCT-15
HL-60 = tested on: HL-60
HOP-18 = tested on: HOP-18
HOP-62 = tested on: HOP-62
IGROV-1 = tested on: IGROV-1
K562 = tested on: K562
KM-20L2 = tested on: KM-20L2
KM12 = tested on: KM12
LOX IMVI = tested on: LOX IMVI
LXFL 529 = tested on: LXFL 529
M14 = tested on: M14
M19-MEL = tested on: M19-MEL
MOLT-4 = tested on: MOLT-4
Malme-3M = tested on: Malme-3M
NCI-H226 = tested on: NCI-H226
NCI-H23 = tested on: NCI-H23
OVCAR-3 = tested on: OVCAR-3
OVCAR-4 = tested on: OVCAR-4
RPMI-8226 = tested on: RPMI-8226
RXF 393 = tested on: RXF 393
RXF 631 = tested on: RXF 631
SF-268 = tested on: SF-268
SF-295 = tested on: SF-295
SF-539 = tested on: SF-539
SK-MEL-28 = tested on: SK-MEL-28
SK-MEL-2 = tested on: SK-MEL-2
SK-MEL-5 = tested on: SK-MEL-5
SK-OV-3 = tested on: SK-OV-3
SN12C = tested on: SN12C
SNB-19 = tested on: SNB-19
SNB-75 = tested on: SNB-75
SNB-78 = tested on: SNB-78
SR = tested on: SR
SW-620 = tested on: SW-620
U-251 = tested on: U-251
UACC-62 = tested on: UACC-62
UO-31 = tested on: UO-31

## C=CC1C(OC2OC(CO)C(O)C(O)C2O)OC=C(C(=O)OC)C1CC=O (centres undefined)
786-0
  GI50: > 100 µM (inactive)
A498
  GI50: > 100 µM (inactive)
A549
  GI50: > 100 µM (inactive)
ACHN
  GI50: > 100 µM (inactive)
COLO 205
  GI50: > 100 µM (inactive)
DLD-1
  GI50: > 100 µM (inactive)
EKVX
  GI50: > 100 µM (inactive)
HCT-15
  GI50: > 100 µM
HL-60
  GI50: > 100 µM (inactive)
HOP-18
  GI50: > 100 µM (inactive)
HOP-62
  GI50: > 100 µM (inactive)
IGROV-1
  GI50: > 100 µM (inactive)
K562
  GI50: > 100 µM (inactive)
KM-20L2
  GI50: > 100 µM (inactive)
KM12
  GI50: > 100 µM (inactive)
LOX IMVI
  GI50: > 100 µM (inactive)
LXFL 529
  GI50: > 100 µM (inactive)
M14
  GI50: > 100 µM (inactive)
M19-MEL
  GI50: > 100 µM (inactive)
MOLT-4
  GI50: > 100 µM (inactive)
Malme-3M
  GI50: > 100 µM (inactive)
NCI-H226
  GI50: 37.8 µM (inactive)
NCI-H23
  GI50: > 100 µM (inactive)
OVCAR-3
  GI50: > 100 µM (inactive)
OVCAR-4
  GI50: > 100 µM (inactive)
RPMI-8226
  GI50: > 100 µM (inactive)
RXF 393
  GI50: > 100 µM (inactive)
RXF 631
  GI50: > 100 µM (inactive)
SF-268
  GI50: > 100 µM (inactive)
SF-295
  GI50: > 100 µM (inactive)
SF-539
  GI50: > 100 µM (inactive)
SK-MEL-28
  GI50: > 100 µM (inactive)
SK-MEL-2
  GI50: > 100 µM (inactive)
SK-MEL-5
  GI50: > 100 µM (inactive)
SK-OV-3
  GI50: > 100 µM (inactive)
SN12C
  GI50: > 100 µM (inactive)
SNB-19
  GI50: > 100 µM (inactive)
SNB-75
  GI50: > 100 µM (inactive)
SNB-78
  GI50: > 100 µM (inactive)
SR
  GI50: > 100 µM (inactive)
SW-620
  GI50: 81.8 µM (inactive)
U-251
  GI50: > 100 µM (inactive)
UACC-62
  GI50: > 100 µM (inactive)
UO-31
  GI50: > 100 µM (inactive)
